Laboratory results as given in the supplement of paper PMC10307832.

Assays:
Experiment in all cases: relative viability (nuclei count vs DMSO), 5 days (fraction); higher = more cells survive
Entinostat + Navitoclax = compound: Nc1ccccc1NC(=O)c1ccc(CNC(=O)OCc2cccnc2)cc1 [Entinostat] + CC1(C)CCC(c2ccc(Cl)cc2)=C(CN2CCN(c3ccc(C(=O)NS(=O)(=O)c4ccc(N[C@H](CCN5CCOCC5)CSc5ccccc5)c(S(=O)(=O)C(F)(F)F)c4)cc3)CC2)C1 [Navitoclax] (partner 0.5 µM)
How it was run: (§1)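 One day after seeding in 1536-well plates, lung cancer cell lines were dosed by pin tool. Dosing was either single-drug or a fixed anchor-drug dose plus five library-drug doses (not always all listed) in √10 steps. After 5 days, nuclei were stained in one fix-and-stain step and counted on 4× images, and relative viability is the nuclei count of treated wells over that of vehicle wells, given as the median of duplicate plates.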

[1] = compound: C1COCCN1C2=NC(=NC3=C2OC4=C3C=CC=N4)C5=CC(=CC=C5)NC(=O)C6=CN=C(C=C6)N + CC(=O)c1c(C)c2cnc(Nc3ccc(N4CCNCC4)cn3)nc2n(C2CCCC2)c1=O [Palbociclib] (partner 0.5 µM)
How it was run: as §1

Entinostat + Linsitinib = compound: Nc1ccccc1NC(=O)c1ccc(CNC(=O)OCc2cccnc2)cc1 [Entinostat] + C[C@]1(O)C[C@@H](c2nc(-c3ccc4ccc(-c5ccccc5)nc4c3)c3c(N)nccn32)C1 [Linsitinib] (partner 1 µM)
How it was run: as §1

[2] = compound: C1COCCN1C2=NC(=NC3=C2OC4=C3C=CC=N4)C5=CC(=CC=C5)NC(=O)C6=CN=C(C=C6)N + CS(=O)(=O)N1CCN(Cc2cc3nc(-c4cccc5[nH]ncc45)nc(N4CCOCC4)c3s2)CC1 [Pictilisib] (partner 1 µM)
How it was run: as §1

Cell Line	relative viability (Entinostat + Navitoclax; first compound 0.02 µM)	relative viability (Entinostat + Navitoclax; first compound 0.06325 µM)	relative viability (Entinostat + Navitoclax; first compound 0.2 µM)	relative viability (Entinostat + Navitoclax; first compound 0.6325 µM)	relative viability (Entinostat + Navitoclax; first compound 2 µM)	relative viability ([1]; first compound 0.02 µM)	relative viability ([1]; first compound 0.06325 µM)	relative viability ([1]; first compound 0.2 µM)	relative viability ([1]; first compound 0.6325 µM)	relative viability ([1]; first compound 2 µM)	relative viability (Entinostat + Linsitinib; first compound 0.02 µM)	relative viability (Entinostat + Linsitinib; first compound 0.06325 µM)	relative viability (Entinostat + Linsitinib; first compound 0.2 µM)	relative viability (Entinostat + Linsitinib; first compound 0.6325 µM)	relative viability (Entinostat + Linsitinib; first compound 2 µM)	relative viability ([2]; first compound 0.02 µM)	relative viability ([2]; first compound 0.06325 µM)	relative viability ([2]; first compound 0.2 µM)	relative viability ([2]; first compound 0.6325 µM)	relative viability ([2]; first compound 2 µM)
NCI-H1944	0.985	0.998	0.938	0.485	0.311	0.354	0.381	0.336	0.304	0.253	1.12	1.19	1.23	0.554	0.357	0.358	0.365	0.356	0.37	0.316
NCI-H2405	1	1.13	1.15	0.814	0.655	0.498	0.566	0.499	0.48	0.359	0.977	1.11	1.04	0.896	0.789	0.431	0.45	0.414	0.428	0.423
201T	1.2	1.16	1.1	0.959	0.779	0.357	0.358	0.372	0.346	0.324	1.1	1.13	1.09	0.902	0.617	0.661	0.66	0.654	0.735	0.696
PC-3 [JPC-3]	0.786	0.846	0.777	0.522	0.423	0.506	0.512		0.592	0.495	0.956	0.907	0.728	0.716	0.467	0.754	0.831	0.739	0.798	0.629
NCI-H1734	0.87	0.874	0.86	0.701	0.412	0.413	0.355	0.342	0.33	0.271	0.908	0.985	0.987	0.916	0.817	0.466	0.494	0.429	0.443	0.355
NCI-H1651	1.02	1.06	1.09	0.709	0.273	0.51	0.509	0.499	0.495	0.395	0.952	0.976	0.959	0.827	0.365	0.621	0.608	0.68	0.567	0.31
NCI-H838	1.21	1.27	1.17	0.694	0.296	0.194	0.212	0.195	0.197	0.175	1.11	1.1	1.11	0.594	0.279	0.481	0.446	0.45	0.362	0.311
NCI-H1915	0.809	0.716	0.813	0.613	0.283	0.516	0.573	0.512	0.613	0.48	1.1	1.04	0.966	0.912	0.459	0.924	0.96	0.927	0.898	0.845
COR-L23	0.86	0.8	0.865	0.441	0.123	0.262	0.314	0.3	0.307	0.229	0.829	0.763	0.748	0.416	0.132	1.02	1.21	0.845	0.843	0.574
HOP-62	1.08	0.923	0.832	0.607	0.217	0.529	0.513	0.444	0.426	0.182	0.743	1.01	0.711	0.403	0.266	0.792	0.82	0.698	0.876	0.499
NCI-H1975	0.906	0.782	0.751	0.289	0.188	0.589	0.777	0.48	0.455	0.38	0.791	0.755	0.692	0.302	0.27	0.276	0.309	0.278	0.273	0.257
BEN	0.0534	0.0509	0.0495	0.0765	0.062	0.465	0.44	0.498	0.464	0.425	0.974	0.928	0.83	0.537	0.249	0.587	0.556	0.597	0.501	0.589
EMC-BAC-2	1.21	1.15	1.25	0.968	0.642	0.54	0.545	0.501	0.498	0.456	0.837	0.915	0.983	0.731	0.487	0.495	0.526	0.516	0.523	0.465
LU99A	0.752	0.916	0.75	0.567	0.421	0.412	0.448	0.361	0.343	0.29	0.505	0.552	0.479	0.394	0.348	0.361	0.344	0.308	0.321	0.267
NCI-H2347	0.839	0.746	0.514	0.19	0.227	0.443	0.413	0.4	0.48	0.441	0.987	0.984	0.903	0.408	0.349	0.735	0.703	0.601	0.619	0.497
NCI-H2009	1.21	1.19	1.13	0.816	0.52	0.195	0.224	0.144	0.223	0.202	1.28	1.18	1.06	0.8	0.651	0.8	0.819	0.804	0.804	0.603

Cell Line	relative viability (Entinostat + Navitoclax; first compound 0.02 µM)	relative viability (Entinostat + Navitoclax; first compound 0.06325 µM)	relative viability (Entinostat + Navitoclax; first compound 0.2 µM)	relative viability (Entinostat + Navitoclax; first compound 0.6325 µM)	relative viability (Entinostat + Navitoclax; first compound 2 µM)	relative viability ([1]; first compound 0.02 µM)	relative viability ([1]; first compound 0.06325 µM)	relative viability ([1]; first compound 0.2 µM)	relative viability ([1]; first compound 0.6325 µM)	relative viability ([1]; first compound 2 µM)	relative viability (Entinostat + Linsitinib; first compound 0.02 µM)	relative viability (Entinostat + Linsitinib; first compound 0.06325 µM)	relative viability (Entinostat + Linsitinib; first compound 0.2 µM)	relative viability (Entinostat + Linsitinib; first compound 0.6325 µM)	relative viability (Entinostat + Linsitinib; first compound 2 µM)	relative viability ([2]; first compound 0.02 µM)	relative viability ([2]; first compound 0.06325 µM)	relative viability ([2]; first compound 0.2 µM)	relative viability ([2]; first compound 0.6325 µM)	relative viability ([2]; first compound 2 µM)
HCC-827	1.03	0.93	0.812	0.595	0.386	0.392	0.537	0.491	0.538	0.34	0.958	0.883	0.722	0.582	0.421	0.99	1.1	1.12	0.986	0.935
CAL-12T	1.22	1.17	1.41	1.22	1.08	0.351	0.44	0.285	0.398	0.326	0.838	0.815	0.814	0.909	0.392	0.464	0.479	0.391	0.356	0.455
PC-14	0.999	1.07	1.14	0.47	0.113	0.482	0.562	0.562	0.284	0.189	1.03	0.947	1.03	0.364	0.16	0.903	1.05	0.512	0.558	0.261
NCI-H23	0.727	0.88	0.873	0.668	0.433	0.622	0.555	0.457	0.524	0.225	0.723	0.567	0.782	0.531	0.399	0.473	0.504	0.409	0.432	0.32
SK-LU-1	0.633	0.76	1.1	0.37	0.368	0.382	0.382	0.371	0.367	0.359	1.1	1.04	0.909	0.657	0.516	0.553	0.671	0.634	0.536	0.467
NCI-H727	0.443	0.356	0.312	0.177	0.163	0.579	0.592	0.613	0.666	0.77	0.306	0.344	0.35	0.255	0.0975	0.298	0.335	0.342	0.412	0.285
HCC-366	1.06	0.946	0.905	0.529	0.138	0.397	0.435	0.367	0.419	0.22	0.859	0.758	0.461	0.175	0.0447	0.0246	0.144	0.107	0.107	0.204
SW 1573	0.933	1.35	1.07	0.996	0.628	0.397	0.381	0.37	0.429	0.261	0.721	0.93	0.811	0.884	0.609	0.555	0.54	0.621	0.534	0.344
HCC-44	1.02	0.826	0.418	0.403	0.235	0.952	0.987	0.96	1.01	1.01	0.676	0.474	0.357	0.27	0.197	0.508	0.607	0.65	0.506	0.399
A-427	1.05	1.01	0.958	0.715	0.669	0.517	0.524	0.496	0.512	0.454	1.16	1.15	1.01	1.07	0.825	0.696	0.621	0.675	0.653	0.507
NCI-H441	0.689	0.505	0.632	0.233	0.0467	0.208	0.178	0.198	0.175	0.198	0.483	0.494	0.524	0.262	0.13	0.564	0.585	0.427	0.447	0.345
LK-2	0.719	0.752	0.659	0.443	0.21	0.71	0.646	0.82	0.501	0.356	0.522	0.59	0.639	0.459	0.274	0.64	0.444	0.621	0.477	0.612
NCI-H2085	1	1.06	1.04	0.801	0.604	0.405	0.502	0.455	0.445	0.438	0.871	0.865	0.788	0.574	0.499	0.441	0.474	0.464	0.446	0.421
NCI-H647	0.96	0.995	0.928	0.374	0.0716	0.408	0.433	0.38	0.279	0.25	1.23	1.14	0.932	0.327	0.121	0.465	0.483	0.418	0.353	0.339
SK-MES-1	1.2	1.21	1.24	1.17	0.788	0.314	0.329	0.294	0.276	0.312	1.11	1.05	1.23	0.983	0.69	0.31	0.407	0.369	0.353	0.317
NCI-H1793	0.405	0.599	0.405	0.374	0.218	0.306	0.335	0.317	0.218	0.255	0.964	0.841	0.834	0.698	0.364	0.312	0.279	0.398	0.408	0.361
